# Results taken from patent publication US7704995B2 (Exelixis, Inc., priority 2003, dated 2010).
# Like-named read-outs stand apart in the source and are kept apart here.
# Target: T1, Chk1 (Homo sapiens, UniProt O14757)
# T1 construct: purchased Upstate Biotechnology
# T1 sequence (O14757 1-476): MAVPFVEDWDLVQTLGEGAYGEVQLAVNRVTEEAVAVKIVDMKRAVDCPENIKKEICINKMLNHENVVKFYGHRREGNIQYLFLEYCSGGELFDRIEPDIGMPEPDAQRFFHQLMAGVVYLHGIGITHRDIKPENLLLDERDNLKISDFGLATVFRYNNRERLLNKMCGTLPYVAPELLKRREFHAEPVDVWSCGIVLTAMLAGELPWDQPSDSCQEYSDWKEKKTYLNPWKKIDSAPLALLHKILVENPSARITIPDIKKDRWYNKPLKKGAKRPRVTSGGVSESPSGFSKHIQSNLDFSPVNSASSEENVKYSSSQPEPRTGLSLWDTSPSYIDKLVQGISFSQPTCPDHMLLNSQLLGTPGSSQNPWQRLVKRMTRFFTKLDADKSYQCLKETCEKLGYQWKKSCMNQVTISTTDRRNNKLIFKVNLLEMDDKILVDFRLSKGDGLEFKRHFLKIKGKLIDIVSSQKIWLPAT
# Assay: Chk1 kinase assay: incorporation of γ-33P ATP into immobilized myelin basic protein
# Type: biochemical
# Conditions: read-out: Chk1 IC50
# Summary of the method: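 Read-out is scintillation counting of 33P incorporated into plate-bound myelin basic protein. Chk1 runs at 10 nM enzyme with 10 μM ATP, Chk2 at 20 nM with 30 μM ATP, each for 1 hour at room temperature. Duplicate points; IC50 taken as 50% activity reduction, Ki computed from IC50.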
# [1] = Table 11, Chk1 only, class symbols A-D
"IC50 (Table 11, Chk1 only)",IC50,SMILES,further results
≥ 10000 nM,,"Cn1nc(-c2nc(-c3cccc(C(=O)NCc4ccccc4)c3)cnc2N)nc1-c1ccccc1 [Example 672, 3-[5-amino-6-(1-methyl-5-phenyl-1H-1,2,4-triazol-3-yl)pyrazin-2-yl]-N-(phenylmethyl)benzamide]",
50 to 1000 nM,,"CCN1CC[C@H](NC(=O)c2nc(-c3cccc(C(=O)N[C@H]4CCc5ccccc54)c3)cnc2N)C1 [Example 706, 3-amino-6-(3-{[(1S)-2,3-dihydro-1H-inden-1-ylamino]carbonyl}phenyl)-N-[(3S)-1-ethylpyrrolidin-3-yl]pyrazine-2-carboxamide]",
,50 to 1000 nM,"CNC(=O)c1nc(-c2cccc(C(=O)NCc3ccccc3-c3cccnc3)c2)cnc1N [Example 391, 3-amino-N-methyl-6-[3-({[(2-pyridin-3-ylphenyl)methyl]amino}carbonyl)phenyl]pyrazine-2-carboxamide]",
50 to 1000 nM,,"Nc1ncc(-c2cccc(C(=O)N[C@H]3CCc4ccccc43)c2)nc1C(=O)NC1CCCNCC1 (stereo partly drawn) [Example 768, 3-amino-N-azepan-4-yl-6-(3-{[(1S)-2,3-dihydro-1H-inden-1-ylamino]carbonyl}phenyl)pyrazine-2-carboxamide]",
,50 to 1000 nM,"CNC(=O)c1nc(-c2cccc(CNCC(c3ccccc3)c3ccccc3)c2)cnc1N [Example 393, 3-amino-6-(3-{[(2,2-diphenylethyl)amino]methyl}phenyl)-N-methylpyrazine-2-carboxamide]",
50 to 1000 nM,,"CNC(=O)c1nc(-c2cccc(CN[C@H]3C[C@H]3c3ccccc3)c2)cnc1N [Example 440, 3-amino-N-methyl-6-[3-({[(1S,2S)-2-phenylcyclopropyl]amino}methyl)phenyl]pyrazine-2-carboxamide]",
,50 to 1000 nM,"CCCc1ccc(CNC(=O)c2cccc(-c3cnc(N)c(C(=O)NC)n3)c2)cc1 [Example 424, 3-amino-N-methyl-6-[3-({[(4-propylphenyl)methyl]amino}carbonyl)phenyl]pyrazine-2-carboxamide]",
,,"Nc1ncc(-c2cccc(C(=O)NCc3c(F)cccc3F)c2)nc1C(=O)N[C@H]1CCCNC1 [Example 1010, 3-amino-6-[3-({[(2,6-difluorophenyl)methyl]amino}carbonyl)phenyl]-N-[(3S)-piperidin-3-yl]pyrazine-2-carboxamide]",IC50 [1]: < 50 nM
,50 to 1000 nM,"CNC(=O)c1nc(-c2cccc(C(=O)NCc3ccc(OC)cc3)c2)cnc1N [Example 95, 3-amino-N-methyl-6-{3-[({[4-(methyloxy)phenyl]methyl}amino)carbonyl]phenyl}pyrazine-2-carboxamide]",
50 to 1000 nM,,"Nc1ncc(-c2cccc(CN[C@H]3CCc4ccccc43)c2)nc1-c1nnc[nH]1 [Example 536, 5-(3-{[(1S)-2,3-dihydro-1H-inden-1-ylamino]methyl}phenyl)-3-(4H-1,2,4-triazol-3-yl)pyrazin-2-amine]",
,,"Nc1ncc(-c2cccc(NC(=O)c3ccc(-c4cnns4)cc3)c2)nc1C(=O)N[C@H]1CCCNC1 [Example 901, 3-amino-N-[(3S)-piperidin-3-yl]-6-[3-({[4-(1,2,3-thiadiazol-5-yl)phenyl]carbonyl}amino)phenyl]pyrazine-2-carboxamide]",IC50 [1]: < 50 nM
,,"Nc1ncc(-c2cccc(CNC(=O)c3cc(F)cc(F)c3)c2)nc1-c1nc([C@H]2CCCNC2)n[nH]1 [Example 943, N-{[3-(5-amino-6-{3-[(3S)-piperidin-3-yl]-1H-1,2,4-triazol-5-yl}pyrazin-2-yl)phenyl]methyl}-3,5-difluorobenzamide]",IC50 [1]: < 50 nM
50 to 1000 nM,,"Nc1ncc(-c2cccc(C(=O)NCc3ccccc3)c2)nc1C(=O)NCC1CCNCC1 [Example 565, 3-amino-6-(3-{[(phenylmethyl)amino]carbonyl}phenyl)-N-(piperidin-4-ylmethyl)pyrazine-2-carboxamide]",
,50 to 1000 nM,"CNC(=O)c1nc(-c2cccc(C(=O)NCc3cc(Cl)ccc3Cl)c2)cnc1N [Example 248, 3-amino-6-[3-({[(2,5-dichlorophenyl)methyl]amino}carbonyl)phenyl]-N-methylpyrazine-2-carboxamide]",
,50 to 1000 nM,"CNC(=O)c1nc(-c2cccc(N)c2)cnc1N [Example 51, 3-amino-6-(3-aminophenyl)-N-methylpyrazine-2-carboxamide]",
,50 to 1000 nM,"CNC(=O)c1nc(-c2cccc(C(=O)NCc3cc(F)cc(C(F)(F)F)c3)c2)cnc1N [Example 172, 3-amino-6-{3-[({[3-fluoro-5-(trifluoromethyl)phenyl]methyl}amino)carbonyl]phenyl}-N-methylpyrazine-2-carboxamide]",

"IC50 (Table 11, Chk1 only)",IC50,SMILES,further results
,50 to 1000 nM,"CNC(=O)c1nc(-c2cccc(C(=O)NCC(C)c3ccccc3)c2)cnc1N (stereo not shown) [Example 127, 3-amino-N-methyl-6-(3-{[(2-phenylpropyl)amino]carbonyl}phenyl)pyrazine-2-carboxamide]",
≥ 10000 nM,,"CC(C)(C)OC(=O)N1CC[C@@H](CNC(=O)c2nc(-c3cccc(C(=O)N[C@H]4CCc5ccccc54)c3)cnc2N)C1 [Example 752, 1,1-dimethylethyl (3S)-3-[({[3-amino-6-(3-{[(1S)-2,3-dihydro-1H-inden-1-ylamino]carbonyl}phenyl)pyrazin-2-yl]carbonyl}amino)methyl]pyrrolidine-1-carboxylate]",
< 50 nM,,"CNC(=O)c1nc(-c2cccc(CN[C@@H]3CCc4ccccc4C3)c2)cnc1N [Example 445, 3-amino-N-methyl-6-(3-{[(2R)-1,2,3,4-tetrahydronaphthalen-2-ylamino]methyl}phenyl)pyrazine-2-carboxamide]",
,,"Cc1ccc(F)c(CNC(=O)c2cccc(-c3cnc(N)c(C(=O)N[C@H]4CCCNC4)n3)c2)c1Cl [Example 1013, 3-amino-6-[3-({[(2-chloro-6-fluoro-3-methylphenyl)methyl]amino}carbonyl)phenyl]-N-[(3S)-piperidin-3-yl]pyrazine-2-carboxamide]",IC50 [1]: < 50 nM
1000 to 10000 nM,,"Nc1ncc(-c2cccc(CN[C@H]3CCc4ccccc43)c2)nc1C(=O)N1CCCC1 [Example 549, 5-(3-{[(1S)-2,3-dihydro-1H-inden-1-ylamino]methyl}phenyl)-3-(pyrrolidin-1-ylcarbonyl)pyrazin-2-amine]",
≥ 10000 nM,,"N=C(N)N/N=C/c1nc(-c2cccc(C(=O)NCc3ccccc3)c2)cnc1N [Example 676, 3-[5-amino-6-((E)-{[amino(imino)methyl]hydrazono}methyl)pyrazin-2-yl]-N-(phenylmethyl)benzamide]",
,,"Nc1ncc(-c2cccc(C(=O)NCc3ccc(F)cc3)c2)nc1-c1nnc([C@H]2CCCNC2)[nH]1 [Example 836, 3-(5-amino-6-{5-[(3S)-piperidin-3-yl]-4H-1,2,4-triazol-3-yl}pyrazin-2-yl)-N-[(4-fluorophenyl)methyl]benzamide]",IC50 [1]: < 50 nM
,50 to 1000 nM,"CCCCCc1ccc(C(=O)NCc2cccc(-c3cnc(N)c(C(=O)NC)n3)c2)cc1 [Example 351, 3-amino-N-methyl-6-[3-({[(4-pentylphenyl)carbonyl]amino}methyl)phenyl]pyrazine-2-carboxamide]",
,,"Nc1ncc(-c2cccc(CNC(=O)c3ccc(OC(F)(F)F)cc3)c2)nc1C(=O)N[C@H]1CCCNC1 [Example 883, 3-amino-N-[(3S)-piperidin-3-yl]-6-(3-{[({4-[(trifluoromethyl)oxy]phenyl}carbonyl)amino]methyl}phenyl)pyrazine-2-carboxamide]",IC50 [1]: < 50 nM
,50 to 1000 nM,"CNC(=O)c1nc(-c2cccc(OCCN3CCN(C)CC3)c2)cnc1N [Example 192, 3-amino-N-methyl-6-(3-{[2-(4-methylpiperazin-1-yl)ethyl]oxy}phenyl)pyrazine-2-carboxamide]",
,,"Cc1ccc(Cl)c(CNC(=O)c2cccc(-c3cnc(N)c(C(=O)N[C@H]4CCCNC4)n3)c2)c1F [Example 1012, 3-amino-6-[3-({[(6-chloro-2-fluoro-3-methylphenyl)methyl]amino}carbonyl)phenyl]-N-[(3S)-piperidin-3-yl]pyrazine-2-carboxamide]",IC50 [1]: < 50 nM
1000 to 10000 nM,,"Cn1nc(-c2nc(-c3cccc(C(=O)N[C@H]4CCc5ccccc54)c3)cnc2N)nc1[C@@H]1CCCN(C(=O)OCc2ccccc2)C1 [Example 754, phenylmethyl (3R)-3-{3-[3-amino-6-(3-{[(1S)-2,3-dihydro-1H-inden-1-ylamino]carbonyl}phenyl)pyrazin-2-yl]-1-methyl-1H-1,2,4-triazol-5-yl}piperidine-1-carboxylate]",
,50 to 1000 nM,"CNC(=O)c1nc(-c2cccc(C(=O)NCc3ccccc3-c3ccc(F)cc3)c2)cnc1N [Example 280, 3-amino-6-[3-({[(4′-fluorobiphenyl-2-yl)methyl]amino}carbonyl)phenyl]-N-methylpyrazine-2-carboxamide]",
,,"Nc1ncc(-c2cccc(C(=O)NC[C@@H]3CCNC3)c2)nc1C(=O)N[C@H]1CCCNC1 [Example 875, 3-amino-N-[(3S)-piperidin-3-yl]-6-[3-({[(3R)-pyrrolidin-3-ylmethyl]amino}carbonyl)phenyl]pyrazine-2-carboxamide]",IC50 [1]: < 50 nM
1000 to 10000 nM,,"Nc1ncc(-c2cccc(C(=O)NCc3ccccc3)c2)nc1/C=N/NCCO [Example 677, 3-(5-amino-6-{(E)-[(2-hydroxyethyl)hydrazono]methyl}pyrazin-2-yl)-N-(phenylmethyl)benzamide]",
